{"source": "patent US8029980B2", "about": "“Identification and use of agents that modulate oncogenic transcription agent activity” (The Board of Trustees of the University of Illinois, priority 2006, dated 2011)", "key": {"[1]": {"system": "Leukemia cell lines CEM, HL60 and U937", "assay": "FoxM1 and cleaved caspase-3 immunoblot in leukemia cell lines", "type": "cell-based, human", "conditions": "5 μM, 48 hrs", "description": "FIG. 10. […] Leukemia cell lines CEM, HL60 and U937 were treated with 5 μM Siomycin A and thiostrepton, respectively, for 48 hrs and the cell lysates were analyzed for the levels of FoxM1 and cleaved caspase-3 by immunoblotting.\n(§1) Immunoblotting was performed as described (18-20) with antibodies specific for p21 (556431; BD Pharmingen), survivin (sc-10811; Santa Cruz), cleaved caspase-3 (9664; Cell Signaling), and β-actin (A5441; Sigma) antibodies. Immunoblot for FoxM1 was done using the previously generated rabbit antisera (2), and phospho-FoxM1 was detected using the MPM2 monoclonal antibody (Upstate Biotechnology) which recognizes the phosphorylated protein sequence phosphoserine/phosphothreonine-proline.\nNext we treated leukemia cell lines with mutant p53 CEM, HL60 and U937 with 5 μM of these compounds for 48 hrs and the cell lysates were analyzed for the levels of FoxM1 and cleaved caspase-3 by immunoblotting."}, "[2]": {"system": "NB7 and NB7-casp8 neuroblastoma cells", "assay": "FoxM1 and cleaved caspase-3 immunoblot in neuroblastoma cells", "type": "cell-based", "conditions": "24 hrs", "description": "FIG. 11. […] Cells were treated with Siomycin A, thiostrepton or DMSO, harvested 24 hrs later and the lysates were used to determine proteins levels by immunoblotting with antibodies specific for FoxM1, cleaved caspase-3 and β-actin (AS441, Sigma)."}, "[3]": {"system": "Liver cancer cell lines Huh7, Hep-3B and SK-Hep", "assay": "FoxM1 and cleaved caspase-3 immunoblot in liver cancer cell lines", "type": "cell-based, human", "conditions": "10 μM, 48 hrs", "description": "FIG. 9. […] Liver cancer cell lines Huh7, Hep-3B and SK-Hep were treated with 10 μM Siomycin A and thiostrepton, respectively, for 48 hrs, and the cell lysates were analyzed for the levels of FoxM1 and cleaved caspase-3 by immunoblotting.\nas §1\nFirst, we treated liver cancer cell lines Huh7, Hep-3B and SK-Hep that have deleted or mutant p53 with these compounds for 48 hrs, and the cell lysates were analyzed for the levels of FoxM1 and cleaved caspase-3 by immunoblotting."}, "[4]": {"system": "Breast cancer cell lines BT-474, MDA-MB-231, T-47D and ZR-75-1", "assay": "FoxM1 and cleaved caspase-3 immunoblot in breast cancer cell lines", "type": "cell-based, human", "conditions": "5 μM, 48 hrs", "description": "FIG. 7. […] Breast cancer cell lines BT-474, MDA-MB-231, T-47D and ZR-75-1 were treated with 5 μM Siomycin and thiostrepton, respectively, for 48 hrs and the cell lysates were analyzed for the levels of FoxM1 and cleaved caspase-3 by immunoblotting.\nas §1"}, "FoxM1": {"target": "T1, FoxM1 (Homo sapiens, UniProt Q08050)", "T1 construct": "expressed in transfected cells; host or cells: U2OS clone C3 / C3-Luc", "T1 sequence (Q08050 1-748 isoform Q08050-2)": "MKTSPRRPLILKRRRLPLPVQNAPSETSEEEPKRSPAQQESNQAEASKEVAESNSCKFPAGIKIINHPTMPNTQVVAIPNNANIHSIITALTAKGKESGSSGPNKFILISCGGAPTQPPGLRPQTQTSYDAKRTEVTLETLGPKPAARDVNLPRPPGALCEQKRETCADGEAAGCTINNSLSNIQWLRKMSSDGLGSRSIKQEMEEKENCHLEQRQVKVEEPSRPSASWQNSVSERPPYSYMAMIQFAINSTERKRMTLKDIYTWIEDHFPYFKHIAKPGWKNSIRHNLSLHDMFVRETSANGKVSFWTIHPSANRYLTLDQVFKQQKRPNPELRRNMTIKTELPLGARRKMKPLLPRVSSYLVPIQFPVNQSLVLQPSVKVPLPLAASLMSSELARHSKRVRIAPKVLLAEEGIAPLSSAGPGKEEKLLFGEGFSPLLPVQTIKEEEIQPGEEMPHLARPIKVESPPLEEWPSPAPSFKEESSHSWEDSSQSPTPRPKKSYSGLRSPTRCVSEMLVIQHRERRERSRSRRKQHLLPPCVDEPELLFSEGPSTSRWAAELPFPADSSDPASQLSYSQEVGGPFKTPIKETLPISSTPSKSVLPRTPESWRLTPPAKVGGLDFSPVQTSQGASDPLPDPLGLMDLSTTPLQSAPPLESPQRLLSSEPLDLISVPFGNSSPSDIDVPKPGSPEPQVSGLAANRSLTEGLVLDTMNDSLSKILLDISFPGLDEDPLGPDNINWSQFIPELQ", "assay": "FoxM1-responsive firefly luciferase reporter assay in C3-Luc cells", "type": "cell-based", "conditions": "C3-Luc cells, 1 μg/mL doxycycline (60-fold induction), 5 μM compound, 24 hrs", "description": "FIG. 6. Thiostrepton and Siomycin A both inhibit FoxM1 transcriptional activity. […] The next day, the luciferase activity was measured with the Dual-Luciferase reporter assay system (E1910; Promega) according to the manufacturer's instructions.\nThe development of U2OS clone C3 cell line with doxycyclin inducible FoxM1-GFP fusion protein has been described before (17). This cell line was transfected with a plasmid expressing firefly luciferase under the control of 6× FoxM1 responsive (FoxRE) promoter (17), along with pcDNA3.1 (Invitrogen, Carlsbad, Calif.) plasmid that expresses neomycin phospho-transferase. […] This clone was further transfected with pRL-CMV (Promega) that expresses renilla luciferase along with pLPCX-puro (Clontech), and the cells were selected in 2 μg/ml puromycin. This cell line which expresses FoxM1-dependent firefly luciferase and constitutive renilla luciferase was named as C3-Luc and used for the screening of compound libraries (Challenge set and Diversity set) from the National Cancer Institute.\nFor high-throughput screening, the C3-Luc cells were grown in 96-well plates and treated overnight with a combination of 1 μg/ml doxycycline and 10 μM of compounds from the library. Next day, the firefly and renilla luciferase activities were measured with the Dual Glo system (E2940; Promega).\nFor the other luciferase assay experiments, the cells were treated as indicated in the FIG. 1 legend and the luciferase activity was measured using the Dual Luciferase reporter assay system (E1910; Promega) according to the manufacturer's instructions."}}, "note": "“Also recorded” adds a separate entry of the source."}
{"smiles": "C=C(NC(=O)C(=C)NC(=O)c1csc(C2=N[C@@H]3c4csc(n4)[C@H]4NC(=O)c5csc(n5)[C@H]([C@](C)(O)[C@@H](C)O)NC(=O)[C@H]5CSC(=N5)/C(=C/C)NC(=O)[C@H]([C@@H](C)O)NC(=O)c5csc(n5)[C@]3(CC2)NC(=O)[C@H](C)NC(=O)C(=C)NC(=O)[C@H](C)NC(=O)[C@H]([C@@H](C)CC)N[C@@H]2C=Cc3c([C@H](C)O)cc(nc3[C@H]2O)C(=O)O[C@@H]4C)n1)C(N)=O", "note": "[thiostrepton]", "values": [{"measurement": "FoxM1 expression", "setting": "[1]", "result": "inhibit FoxM1 expression"}, {"measurement": "apoptosis (cleaved caspase-3)", "setting": "[1]", "result": "induce apoptosis"}, {"measurement": "apoptosis (cleaved caspase-3)", "setting": "[2]; NB7 and NB7 with reconstituted caspase-8", "result": "induce apoptosis in these neuroblastoma cells independently from caspase-8"}, {"measurement": "FoxM1 protein expression", "setting": "[2]; immunoblot", "result": "inhibit FoxM1 protein expression"}, {"measurement": "FoxM1 protein expression", "setting": "[3]", "result": "repress FoxM1 protein expression"}, {"measurement": "apoptosis (cleaved caspase-3)", "setting": "[3]", "result": "induce apoptosis"}, {"measurement": "FoxM1 expression", "setting": "[4]", "result": "stronger inhibitor of FoxM1; also recorded: inhibit FoxM1 expression"}, {"measurement": "apoptosis (cleaved caspase-3)", "setting": "[4]", "result": "more efficient inducer of apoptosis than Siomycin A; also recorded: induce apoptosis"}, {"measurement": "relative firefly luciferase activity (FoxM1 transcriptional activity)", "setting": "FoxM1", "result": "efficiently reduced the value to basal levels"}]}
